Test results: patent US9353116B2, “Methods and compositions for kinase inhibition” (THE REGENTS OF THE UNIVERSITY OF CALIFORNIA, priority 2010, dated 2016)
Like-named read-outs stand apart in the source and are kept apart here.

How the values were obtained:
WT c-Src [1] = molecular target: T1, WT c-Src (Gallus gallus (Chicken), UniProt P00523); experiment: In vitro kinase assay, WT c-Src; type: biochemical; conditions: inhibitor preincubated with Src ten minutes prior to addition of ATP; read-out: WT c-Src IC50
Method: (§1) In vitro kinase assays for c-Src variants were performed in 50 mM Tris (pH 8.0), 10 mM MgCl2 and 1 mg/mL BSA. When obtaining kinetic parameters (kcat, Km) kinase and peptide substrate (IYGEFKKK) (SEQ ID NO:51) concentrations were 2 nM and 500 μM, respectively, while ATP concentrations ranged from 2000-0.655 μM. Addition of nonradioactive ATP supplemented with ^32P ATP (3,000 Ci/mmol, NEN) was used to initiate kinase reactions. Time points were selected such that product formation never exceeded 10%. Reactions were quenched by spotting 3 μL quantities onto phosphocellulose sheets (P81, Whatman). Afterwards, the sheets were washed 3×5 minutes in 0.5% phosphoric acid and dried. Radioactivity was measured by phosphorimaging and recorded on a Typhoon fluorescence imager (Molecular Dynamics). Data were plotted as rate (min^−1) versus ATP concentration and fitted to the Michaelis-Menten equation, v=[(kcat)[S]]/(Km+[S]), using Kaleidagraph software (Synergy) to extract kinetic parameters. When obtaining IC50 values for the inhibitors, 2% (v/v) DMSO was included in kinase reactions. In these cases ATP, peptide, and enzyme concentrations were 15 nM, 100 μM and 5 nM, respectively, while inhibitor concentrations ranged from 10,000-0.610 nM. In all cases, a ten-minute preincubation step between the kinase and the inhibitor preceded addition of ATP and a fifteen-minute reaction. The data was fitted to a sigmoidal dose-response curve using Prism 4.0c (GraphPad Software) to obtain IC50 values.

T338C c-Src [2] = molecular target: T2, T338C c-Src (Gallus gallus (Chicken), UniProt P00523, T338C); experiment: In vitro kinase assay, T338C c-Src (c-Src-ES1); type: biochemical
Method: as §1, with “In all cases, a ten-minute preincubation step between the kinase and the inhibitor preceded addition of ATP and a fifteen-minute reaction.” left out

c-Src-ES3 (T338C/V323S) = c-Src-ES3 (T338C/V323S) (Gallus gallus (Chicken), UniProt P00523, T338C/V323S); experiment: In vitro kinase assay, c-Src-ES3; type: biochemical
Method: as §1

v-Src-ES1 (I338C) = v-Src-ES1 (I338C) (Rous sarcoma virus (strain H-19), UniProt P25020, I338C); experiment: Inhibition assay with v-Src-ES1 transformed NIH-3T3 cells; type: cell-based
Method: (§2) Curr Biol 8(5):257-266. Cells were grown to 60-90% confluence in DMEM supplemented with fetal bovine serum (10%), penicillin ‘G’ (100 units/ml) and streptomycin sulfate (100 μg/ml) (PenStrep, UCSF Cell Culture Facility) prior to treatment with kinase inhibitors dissolved in DMSO (final DMSO concentration, 0.5%). Following 1 hour of incubation with inhibitors at 37° C., cells were harvested in lysis buffer (50 mM Tris (pH 7.4), 300 mM NaCl, 5 mM EDTA, 1% triton, 0.02% NaN3, 1× complete mini protease inhibitor (Roche), 1 mM PMSF, 1×PHOS-stop (Roche), 0.02 μM microcystin, 2 mM sodium orthovanadate), normalized for concentration and analyzed by Western blot for global phosphotyrosine levels (4G10, Millipore, 1:1000). Levels of β-actin (β-actin Antibody, Cell Signaling, 1:1000) and v-Src (Src 32G6 rabbit mAb, Cell Signaling, 1:1000) were ascertained by Western blot.
(§3) I338C (v-Src-ES1, SEQ ID NO:48), I338T (SEQ ID NO:49), I338G (v-Src-AS1, SEQ ID NO:50) and WT v-Src-transformed NIH-3T3 cell lines were generated. Unlike c-Src, v-Src is constitutively active and harbors an isoleucine gatekeeper. The I338T v-Src variant was generated for consistency with the in vitro c-Src studies. For each cell line, global levels of phosphotyrosine were analyzed (FIG. 7). […]

I338T v-Src = I338T v-Src (Rous sarcoma virus (strain H-19), UniProt P25020, I338T); type: cell-based
Method: as §2, §3

T338C c-Src [3] = molecular target: T2, T338C c-Src; experiment: Gel filtration and kinetic assay, T338C c-Src; type: biochemical; conditions: 23 μM inhibitor, 25 minutes, then PD10 desalting
Method: (§4) Inhibitors (final concentration 23 μM) were incubated with c-Src variants (final concentration 11.5 μM) in kinase reaction buffer (50 mM Tris pH 8, 100 mM NaCl, 1 mM DTT, 5% glycerol, 5% DMSO) for 25 minutes at room temperature. The solutions (2.6 mL total) were then passed over PD10 desalting columns (GE Healthcare) using the kinase reaction buffer for elution. Src concentrations were calculated using the extinction coefficient for c-Src (51.140 mM^−1cm^−1) {Seeliger, 2005 #100}. Kinase assays were performed as described in the experimental section at a final enzyme concentration of 10 nM.

WT c-Src [4] = molecular target: T1, WT c-Src; experiment: Gel filtration and kinetic assay, WT c-Src; type: biochemical; conditions: 23 μM inhibitor, 25 minutes, then PD10 desalting
Method: as §4

CC(C)n1nc(Cc2cccc(C(=O)CF)c2)c2c(N)ncnc21 [Compound 13, 1-(3-((4-amino-1-isopropyl-1H-pyrazolo[3,4-d]pyrimidin-3-yl)methyl)phenyl)-2-fluoroethanone]
IC50 (WT c-Src [1]): > 5 µM | time dependence of inhibition of T338C c-Src (T338C c-Src [2]): time-dependent manner | IC50 (T338C c-Src [2]; ES1 = T338C, read-out: c-Src variant IC50 (nM) ES1): 338 nM | fold more potent than the corresponding ketone 14 (T338C c-Src [2]; T338C c-Src): > 13 fold | IC50 (T338C c-Src [2]; T338C c-Src IC50 (nM), preincubation time 2 min): 1280 nM | IC50 (T338C c-Src [2]; T338C c-Src IC50 (nM), preincubation time 20 min): 318 nM | IC50 (T338C c-Src [2]; T338C c-Src IC50 (nM), preincubation time 40 min): 136 nM | IC50 (T338C c-Src [2]; inhibitor preincubated with Src ten minutes prior to addition of ATP, read-out: T338C c-Src IC50): 338 nM | IC50 (c-Src-ES3 (T338C/V323S); ES3 = T338C/V323S, read-out: c-Src variant IC50 (nM) ES3): 29 nM | fold improvement in potency with V323S mutation (c-Src-ES3 (T338C/V323S); c-Src-ES3 relative to c-Src-ES1): 12 fold | inhibition of v-Src-ES1 in cells (global phosphotyrosine levels) (v-Src-ES1 (I338C)): inhibited v-Src-ES1 in a dose-dependent manner | inhibition of I338T v-Src in cells (global phosphotyrosine levels) (I338T v-Src): neither 9 nor 13 inhibited I338T v-Src | inhibitory activity after gel filtration, T338C c-Src (T338C c-Src [3]): retained | inhibitory activity after gel filtration, WT c-Src (WT c-Src [4]): lost
